In publication PMC5318439, “The Novel Toll-Like Receptor 2 Agonist SUP3 Enhances Antigen Presentation and T Cell Activation by Dendritic Cells” (Frontiers in Immunology, 2017):
Where a SMILES comes first, the peptide text is derived from it. The star is where a group is joined. X1 = CCCCCCCCCCCCCCNC(=O)OC[C@H](C*)OC(=O)NCCCCCCCCCCCCCC; Palmitoyl = CCCCCCCCCCCCCCCC(=O)*

Experiments:
[1] = tested on: CD11b^+ cDCs; assay: Cytokine production by purified CD11b+ cDCs (ELISA); type: cell-based, mice; settings: 200 nM, GM-CSF 20 ng/mL, 24 h, compared with CpG 20 nM
Description: Splenic DCs (5 × 10^5 cells/mL) were stimulated by Pam3 (200 nM), SUP3 (200 nM), or CpG ODN 1668 (20 nM; Adipogen IAX-200-001) in the GM-CSF (20 ng/mL) supplemented medium for indicated periods. Cell culture supernatants were harvested at indicated time points and stored at −40°C. RAW 264.7 cells and GMDCs were stimulated by lipopolysaccharide (LPS) (20 ng/mL; Adipogen IAX-100-013), Pam3, or SUP3 (both at 200 nM) for 24 h. For in vivo administration, Pam3 (2 nmol per mouse), SUP3 (2 nmol per mouse), or LPS (1 µg per mouse) were intravenously (i.v.) injected via tail veins. Serum was obtained through tail vein bleeding and centrifuged after coagulation and stored at −40°C. Cytokines (IL-6, eBioscience 88-7064; TNFα, eBioscience 88-7324; IL-12p40, BioLegend 431604), chemokine (MIP1α, R&D Systems DY450-05), and total IgM (eBioscience, 88-50470) were quantified by ELISA kits following the instructions of manufacturers.
Figure 5 SUP3 enhanced antigen presentation ability of CD11b^+ conventional dendritic cells (cDCs) and production of antibodies against thymus-dependent (TD) antigens. […] Three days after immunization, division of OT-II CD4^+ T cells from inguinal lymph nodes were analyzed by flow cytometry (B). Absolute numbers of proliferated OT-II CD4^+ T cells were calculated in (C). […] (D) The division of OT-II cells was measured by reduced level of CFSE-labeling. […]

[2] = tested on: CD8^+ cDCs; assay: Costimulatory and MHC molecule expression on CD8+ cDCs in vitro; type: cell-based, mice; settings: 200 nM, GM-CSF 20 ng/mL, 24 h, flow cytometry
Description: Single cell suspensions were prepared, and cells were stained by fluorescence-conjugated antibodies and viability dye 7-AAD (eBioscience 00-6993) at 4°C for 30 min in the dark. Cells were washed, resuspended, and analyzed on LSR Fortessa (Becton Dickinson).
Figure 4 SUP3 stimulated maturation of CD8^+ conventional dendritic cells (cDCs). (A) Purified CD8^+ cDCs were treated with SUP3 (200 nM) or Pam3 (200 nM) in the presence of granulocyte-macrophage colony-stimulating factor (GM-CSF) (20 ng/mL) for 24 h. The surface expression of costimulatory and major histocompatibility complex (MHC) molecules were then analyzed by flow cytometry. Representative data from three independent experiments were shown. “Isotype” represented relative isotype antibody staining of Pam3 or SUP3 stimulated cells. (B) SUP3 (2 nmol per mouse), Pam3 (2 nmol per mouse), or PBS were i.v. injected into mice for 1 h. Splenic CD8^+ cDCs were enriched, and surface expression of CD40 and CD86 was analyzed by flow cytometry. Representative data from two independent experiments with three mice for each group were shown. […] Supernatants were harvested 24 and 48 h post-stimulation, and cytokines were measured by ELISA. […]

Compound	IL-6, TNFα, and MIP1α production by CD11b+ cDCs [1]	expression of CD40, CD80, CD86, and MHC-II on CD8+ cDCs [2]
CCCCCCCCCCCCCCCC(=O)N[C@@H](CSC[C@@H](COC(=O)NCCCCCCCCCCCCCC)OC(=O)NCCCCCCCCCCCCCC)C(=O)NCC(=O)N[C@@H](CCCCN)C(=O)N[C@@H](CCCCN)C(=O)N[C@@H](CCCCN)C(=O)O [SUP3, (2S,5S,8S,14R,18R)-2,5,8-tris(4-aminobutyl)-4,7,10,13,21-pentaoxo-14-palmitamido-18-((tetradecylcarbamoyl)oxy)-20-oxa-16-thia-3,6,9,12,22-pentaazahexatriacontan-1-oic acid] (Palmitoyl-C(X1)GKKK-OH)	lower level	substantial upregulation
Pam3CSK4 [reference compound]	lower level	substantial upregulation
